Laboratory results reported in patent publication US20100260680A1, “NOVEL BONE MASS INCREASING AGENT” (ORIENTAL YEAST CO., LTD., priority 2007, published 2010).
Bridges are numbered along the chain shown (N, C = ends). Where no end group is shown, it is not given here.

What was measured:
C2C12 cells = assay: ALP activity determination in C2C12 cells; type: cell-based, mouse; conditions: 6 days
C57BL/6CrjCrlj mice [1] = assay: Peptide D administration to mice: bone density (SXA), pQCT and μCT analysis of femur; type: in vivo, mouse
Experimental: A synthetic peptide was used for experiments. Synthetic peptide D is a cyclic peptide comprising the amino acid sequence represented by SEQ ID NO: 7, which consists of 9 amino acids and contains two cysteine residues binding to each other via a disulfide bond. […] The synthetic peptide was dissolved in 10% DMSO (Nacalai)/PBS to a concentration of 1 mg/ml.
Subcutaneous administration of peptide D was carried out in a dose of 10 mg/kg at 8:00, 14:00, and 20:00 (three times daily) for 5 days. 5% DMSO/PBS was administered to the control group. Mice were dissected 12 hour after the completion of administration for 5 days and subjected to exsanguination. Thereafter, the femur and the tibia were collected from each mouse. The whole blood of each mouse was left at room temperature for 1 hour and then centrifuged under conditions of 5000 rpm and 4° C. for 5 min. The serum was collected in a new tube. The femur and the tibia of each mouse were fixed with cold 70% ethanol.
Each femur fixed with ethanol was subjected to single energy X-ray absorptiometry (SXA) analysis (DCS-600EX-IIIR DXA for animals, ALOKA) for determination of bone density, bone mineral content, and bone surface area. The full length of each bone was divided into 20 regions. The bone density for each region was determined and actions of the peptide in each region were analyzed.
Bone structure analysis was carried out by peripheral quantitative computed tomography (hereinafter abbreviated as pQCT) and micro-computed tomography (hereinafter abbreviated as μCT). Scan-Xmate-A080 (Comscantecno Co., Ltd.) was used for μCT and XCT-Research SA+(Stratec Medizintechnik GmbH) was used for pQCT. The dedicated software (3D-BON (RATOC)) was used for preparation of three-dimensional structural image and trabecular structure analysis with the use of μCT data. In addition, for analysis by pQCT, a region with a bone density of 395 mg/cm^3 or less was determined to be cancellous bone and a region with a bone density of 690 mg/cm^3 or more was determined to be cortical bone.

C57BL/6CrjCrlj mice [2] = assay: Bone morphology measurement with calcein labeling after peptide D administration; type: in vivo, mouse; conditions: region 5 mm away from the distal end of the femur
Experimental: In the experiment in Example 11 in which synthetic peptide D had been administered to mice, calcein (Nacalai) mixed with 2% hydrogen carbonate/ethanol aqueous solution was intraperitoneally administered in doses of 0.01 mL/g (weight) to individual mice of each group for calcein labeling on Days 1 and 4 after the initiation of administration of synthetic peptide D. A region located 5 mm away from the ethanol-fixed distal end of the femur collected from each mouse upon dissection was embedded in a methylmethacrylate (MMA) resin so that a non-decalcified specimen was prepared. […] As a result, in the group treated with peptide D, increases in calcification rate and osteogenesis rate were observed (FIGS. 25A and 25B).

MC3T3-E1 cells = assay: DNA microarray analysis of MC3T3-E1 cells; type: cell-based, mouse; conditions: 200 μM peptide D (acetate)
Experimental: MC3T3-E1 cells mixed with 10% FBS+αMEM (SIGMA) were seeded on a 10 cm dish (2×10^5 cells/well). After 12 hours, the medium was removed therefrom. […] The medium was partially removed at 12 and 96 hours, at which time TRIZOL solution (Invitrogen) (3 mL) was added to each well for cell lysis. Then, total RNA extraction was carried out by the method described in Example 15. Each extracted total RNA (2 μg) was subjected to DNA microarray analysis (Mouse Genome 430 2.0 Affymetrix). In addition, scanning was performed with a GeneChip Scanner 3000 (Affymetrix 690036) and digitalization was performed with the Gene Chip Operating Software ver. 1.4.

mouse tibia = assay: RT-PCR of osteogenesis markers in tibia of mice given peptide D; type: in vivo; conditions: peptide D acetate 10 mg/kg s.c. three times daily for 5 days
Experimental: Synthetic peptide D subjected to substitution with an acetate was used in this experiment. The synthetic peptide D was dissolved in PBS at a concentration of 1 mg/mL. PBS was administered to a control group.
Subcutaneous administration of synthetic peptide D in the form of acetate was carried out in a dose of 10 mg/kg at 8:00, 14:00, and 20:00 (three times daily) for 5 days. PBS was administered to the control group. Mice were dissected 12 hour after the completion of administration for 5 days and subjected to exsanguination. Thereafter, the femur and the tibia were collected from each mouse. The whole blood of each mouse was left at room temperature for 1 hour and then centrifuged under conditions of 5000 rpm and 4° C. for 5 min. The serum was collected in a new tube. The femur and the tibia of each mouse were fixed with cold 70% ethanol. Muscles and the like were carefully removed from each tibia. Then, each tibia was washed with PBS and cut into 1-mm fragments with scissors, followed by freezing with liquid nitrogen. […]
After cDNA synthesis, as in the case of Example 23, PCR was performed using primers specific to mouse alkaline phosphatase (mALP), mouse type I collagen αI chain (mCollagen αI), and mouse osteocalcin (mOC). […] The obtained images were analyzed with a CSAnalyzer and standardized based on the GAPDH expression levels. […]

[3] = μCT trabecular structure measurement

peptide D: cyclic peptide of SEQ ID NO: 7, 9 amino acids, two cysteine residues bound via a disulfide bond; binds to RANKL (YCWSQYLCY; disulfide 2-8 (inferred))
ALP activity (C2C12 cells; 50 μM peptide D alone): actions of ALP activity enhancement were not observed
increase in the ALP activity relative to BMP-2 alone (C2C12 cells; 50 μM peptide D combined with 100 ng/mL BMP-2): at least 5 times
bone mineral content (SXA, femur) (C57BL/6CrjCrlj mice [1]; 10 mg/kg s.c. 3 times daily for 5 days): increase in bone mineral content
bone density (SXA, femur) (C57BL/6CrjCrlj mice [1]; 10 mg/kg s.c. 3 times daily for 5 days, p<0.05 vs control group): significant increase in bone density
bone density of each region (SXA20 partition analysis) (C57BL/6CrjCrlj mice [1]; 6th to 9th regions from the distal end of the femur, p<0.05 vs control group): significant increase in bone density
bone resorption inhibition actions (C57BL/6CrjCrlj mice [1]; based on trabecular structure measurement by μCT): weak actions
intimal circumference of the cortical bone (C57BL/6CrjCrlj mice [1]; region 5 mm away from the distal end of the femur): shortened
cortical bone density (pQCT) (C57BL/6CrjCrlj mice [1]; region 5 mm away from the distal end of the femur, p<0.05 vs control group): significant increase in cortical bone density
cancellous bone content (μCT) (C57BL/6CrjCrlj mice [1]; site 2 mm away from the distal end of the femur): increased
BV/TV of the cancellous bone (C57BL/6CrjCrlj mice [1]; [3]): increased
trabecular width of the cancellous bone (C57BL/6CrjCrlj mice [1]; [3]): increased
calcification rate (C57BL/6CrjCrlj mice [2]): increases
osteogenesis rate (bone formation rate) (C57BL/6CrjCrlj mice [2]): increases
expression level of the osteocalcin (OC) gene (MC3T3-E1 cells): increased sharply
gene expression levels of IRS-1, IGF-1, FGF receptor 2, PDGF receptor β, PDGF receptor α, CTGF, type I collagen α1 and α2 chains (MC3T3-E1 cells; 12 hours): increased significantly
gene expression levels of IGF-2, ALP, BMP-4, OC (osteocalcin), FGF2, PDGFc, PDGFα, PDGFβ (MC3T3-E1 cells; 96 hours): increased significantly
expression levels of mALP, mCollagen αI and mOC in tibia (mouse tibia): increase in the expression level of each factor
